According to US11505548B2, “Heterocyclic compounds and their use for treatment of helminthic infections and diseases” (Celgene Corporation, priority 2019, dated 2022):

What follows are compounds tested on microfilariae of Dirofilaria immitis (assay: Dirofilaria immitis, Microfilaria (DiMF) Assay). Conditions: read-out: D. immitis activity level (IC50 or MED).
Format: cell-based
Method in brief: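 D. immitis microfilariae were incubated in medium with DMSO-diluted compounds for about 72 h. Survival or paralysis was scored subjectively under the microscope. Values are Minimum Effective Dose (MED).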

Row | SMILES | IC50 [nM]
1 | COc1cccnc1Nc1nc(-c2ccc(OC3CC(F)(F)C3)cn2)ns1 [Compound 137, 3-(5-(3,3-difluorocyclo-butoxy)pyridin-2-yl)-N-(3-methoxypyridin-2-yl)-1,2,4-thiadiazol-5-amine] | 500 to 5000
2 | CC(=O)N(C)c1cccnc1Nc1nc(-c2cc(C)ccn2)ns1 [Compound 208, N-methyl-N-(2-(3-(4-methylpyridin-2-yl)-1,2,4-thiadiazol-5-ylamino)pyridin-3-yl)acetamide] | 500 to 5000
3 | CC(C)Oc1ccc(-c2nsc(Nc3nccnc3N(C)C)n2)nc1 [Compound 144, N2-(3-(5-isoprop-oxypyridin-2-yl)-1,2,4-thiadiazol-5-yl)-N3,N3-dimethyl-pyrazine-2,3-diamine] | 200 to 500
4 | CN1CCC(Oc2ccc(-c3nsc(Nc4ncccc4C(F)(F)F)n3)nc2)CC1 [Compound 55, 3-(5-(1-methyl-piperidin-4-yloxy)pyridin-2-yl)-N-(3-(trifluoromethyl)pyridin-2-yl)-1,2,4-thiadiazol-5-amine] | 500 to 5000
5 | CC(C)Oc1cccnc1-c1nsc(Nc2cc(N3CCCC3)ccn2)n1 [Compound 94, 3-(3-isopropoxy-pyridin-2-yl)-N-(4-(pyrrolidin-1-yl)pyridin-2-yl)-1,2,4-thiadiazol-5-amine] | 500 to 5000
6 | CC(C)Oc1ccc(-c2nsc(Nc3ncccc3C(=O)N3CCCC3)n2)nc1 [Compound 190, (2-(3-(5-isoprop-oxypyridin-2-yl)-1,2,4-thiadiazol-5-ylamino)pyridin-3-yl) (pyrrolidin-1-yl) methanone] | 500 to 5000
7 | COc1ccnc(-c2nsc(Nc3ccc(C(C)C)cn3)n2)c1 [Compound 177, N-(5-isopropyl-pyridin-2-yl)-3-(4-methoxy-pyridin-2-yl)-1,2,4-thiadiazol-5-amine] | < 200
8 | CC(C)Oc1cnc(-c2nsc(Nc3ncccc3C(C)C)n2)cc1C#N [Compound 201, 5-isopropoxy-2-(5-(3-isopropyl-pyridin-2-ylamino)-1,2,4-thiadiazol-3-yl)isonicotino-nitrile] | < 200
9 | Cc1cccnc1Nc1nc(-c2cc(C#N)ccn2)ns1 [Compound 40, 2-(5-(3-methyl-pyridin-2-ylamino)-1,2,4-thiadiazol-3-yl)isonicotino-nitrile] | 500 to 5000
10 | Cc1nccnc1Nc1nc(-c2ccc(OC(C)C)cn2)ns1 [Compound 135, 3-(5-isoprop-oxypyridin-2-yl)-N-(3-methyl-pyrazin-2-yl)-1,2,4-thia-diazol-5-amine] | 200 to 500
11 | Cc1cccnc1Nc1nc(-c2ccc(OC3CCN(C4CC4)CC3(F)F)cn2)ns1 (stereo not drawn) [Compound 83, 3-(5-(1-cyclo-propyl-3,3-difluoro-piperidin-4-yloxy)pyridin-2-yl)-N-(3-methylpyridin-2-yl)-1,2,4-thiadiazol-5-amine] | 200 to 500
12 | CC(=O)N(C)c1cccnc1Nc1nc(-c2cc(C(F)F)c(OC(C)C)cn2)ns1 [Compound 261, N-(2-(3-(4-(difluoromethyl)-5-isopropoxy-pyridin-2-yl)-1,2,4-thiadiazol-5-ylamino)pyridin-3-yl)-N-methylacetamide] | 200 to 500
13 | CC(C)Oc1cnc(-c2nsc(Nc3ncccc3C(C)C)n2)cc1C(F)(F)F [Compound 168, 3-(5-isoprop-oxy-4-(trifluoromethyl)pyridin-2-yl)-N-(3-isopropyl-pyridin-2-yl)-1,2,4-thiadiazol-5-amine] | 200 to 500
14 | c1ccc(-c2nsc(Nc3ccc(N4CCCC4)cn3)n2)nc1 [Cmpd 8, 3-(pyridin-2-yl)-N-(5-(pyrrolidin-1-yl)pyridin-2-yl)-1,2,4-thiadiazol-5-amine] | 500 to 5000
15 | CNc1cccnc1Nc1nc(-c2ccc(OC(C)C)cn2)ns1 [Compound 108, N2-(3-(5-isopropoxypyridin-2-yl)-1,2,4-thiadiazol-5-yl)-N3-methyl-pyridine-2,3-diamine] | 200 to 500
16 | COC(=O)c1cccnc1Nc1nc(-c2ccc(OC(C)C)cn2)ns1 [Compound 276, methyl 2-(3-(5-isopropoxy-pyridin-2-yl)-1,2,4-thiadiazol-5-ylamino) nicotinate] | 500 to 5000
17 | FC(F)(F)c1ccnc(Nc2nc(-c3cc(C4CC4)ccn3)ns2)c1 [Compound 85, 3-(4-cyclopropyl-pyridin-2-yl)-N-(4-(trifluoromethyl)pyridin-2-yl)-1,2,4-thiadiazol-5-amine] | < 200
18 | CC(=O)N(C)c1cccnc1Nc1nc(-c2cc3c(cn2)N(C)CC3)ns1 [Compound 202, N-methyl-N-(2-(3-(1-methyl-2,3-dihydro-1H-pyrrolo[2,3-c]pyridin-5-yl)-1,2,4-thiadiazol-5-ylamino)pyridin-3-yl)acetamide] | 500 to 5000
19 | Cc1cccnc1Nc1nc(-c2cc(C#N)c(OC(C)C)cn2)ns1 [Compound 200, 5-isopropoxy-2-(5-(3-methylpyridin-2-ylamino)-1,2,4-thiadiazol-3-yl)isonicotino-nitrile] | 200 to 500
20 | CC(=O)N(C)c1cccnc1Nc1nc(-c2ccc(NC34CC(C3)C4)cn2)ns1 [Compound 207, N-(2-(3-(5-(bicyclo [1.1.1]pentan-1-ylamino)pyridin-2-yl)-1,2,4-thiadiazol-5-ylamino)pyridin-3-yl)-N-methylacetamide] | 500 to 5000
21 | CC(C)Oc1cnc(-c2nsc(Nc3ncccc3C(F)(F)F)n2)cc1C(N)=O [Compound 220, 5-isopropoxy-2-(5-(3-(trifluoromethyl)pyridin-2-ylamino)-1,2,4-thiadiazol-3-yl)isonico-tinamide] | 500 to 5000
22 | CC(=O)N(C)c1cc(C(F)(F)F)cnc1Nc1nc(-c2cc3c(cn2)N(C(C)C)CC3)ns1 [Compound 273, N-(2-(3-(1-isopropyl-2,3-dihydro-1H-pyrrolo[2,3-c]pyridin-5-yl)-1,2,4-thiadiazol-5-ylamino)-5-(trifluoromethyl)pyridin-3-yl)-N-methylacetamide] | < 200
23 | CN(C)c1cccnc1Nc1nc(-c2ccc(OC3CC3)cn2)ns1 [Compound 78, N2-(3-(5-cyclopropoxy-pyridin-2-yl)-1,2,4-thiadiazol-5-yl)-N3,N3-dimethyl-pyridine-2,3-diamine] | 500 to 5000
24 | CC(C)Oc1cnc(-c2nsc(Nc3ncccc3C(F)(F)F)n2)cc1C(=O)N(C)C [Compound 218, 5-isopropoxy-N,N-dimethyl-2-(5-(3-(trifluoromethyl)pyridin-2-ylamino)-1,2,4-thiadiazol-3-yl)isonico-tinamide] | 500 to 5000
